{"source": "patent US20040033483A1", "about": "“Cell diagnosing method, and device and apparatus use for it” (priority 2001, published 2004)", "key": {"[1]": {"system": "normal cells prepared from the fundus of rat stomach", "assay": "Electrical signal of cells on the cell diagnosis device on applying Carbachol, normal cells", "format": "cell-based", "description": "(§1) A cell diagnosis apparatus comprising the device shown in FIG. 3 as a measuring section (signal source) 101, which has a configuration shown in FIG. 4, was used. Normal cells and cancer cells were prepared as samples from the fundus of rat stomach. The apparatus was used to measure the action of a chemical substance, Carbachol, on these samples.\nCarbachol is a chemical substance known as an analog of the neurotransmitter Acetylcholine. Carbachol (manufactured by Sigma) was dissolved in Krebs Ringer solution to concentrations of 0, 0.1, 0.3, 1, 3 10, 30 and 100 μM. The solutions having these concentrations were used to measure an electrical signal when each solution was applied to the normal cells and the cancer cells derived from the fundus of stomach. For each Carbachol concentration, time-series signal values for 10 seconds were obtained from the measuring section (signal source) 101 comprising the cell diagnosis device shown in FIG. 3, and was sampled at intervals of 100 msec to obtain time-series data, and the standard deviation of the sampling data was calculated. […]\n(§2) Before and after 50 μM-concentration Carbachol was applied to the normal cells and the cancer cells prepared from the fundus of rat stomach, signals were obtained from the measuring section (signal source) 101, and the standard deviation of the signals was calculated in a manner similar to that of Example 1."}, "[2]": {"system": "cancer cells prepared from the fundus of rat stomach", "assay": "Electrical signal of cells on the cell diagnosis device on applying Carbachol, cancer cells", "format": "cell-based", "description": "as §1\nCarbachol is a chemical substance known as an analog of the neurotransmitter Acetylcholine. Carbachol (manufactured by Sigma) was dissolved in Krebs Ringer solution to concentrations of 0, 0.1, 0.3, 1, 3 10, 30 and 100 μM. The solutions having these concentrations were used to measure an electrical signal when each solution was applied to the normal cells and the cancer cells derived from the fundus of stomach. For each Carbachol concentration, time-series signal values for 10 seconds were obtained from the measuring section (signal source) 101 comprising the cell diagnosis device shown in FIG. 3, and was sampled at intervals of 100 msec to obtain time-series data, and the standard deviation of the sampling data was calculated. The average of the standard deviation was plotted in FIG. 8. In FIG. 8, black circles indicate results obtained from cells including cancer cells and white circles indicate results obtain from normal cells.\nThe apparatus having the configuration shown in FIG. 5, which comprises the device shown in FIG. 3 as a measuring section (signal source), was used to measure the action of Carbachol on samples, where the samples were normal cells and cells including cancer cells prepared from the fundus of rat stomach, as in Example 1.\nas §2"}, "[3]": {"conditions": "50 μM Carbachol, before versus after application, 10 seconds, FIG. 9"}, "[4]": {"conditions": "Carbachol 0, 0.1, 0.3, 1, 3, 10, 30 and 100 μM in Krebs Ringer solution, 10 seconds signal, FIG. 8"}}, "data": [{"smiles": "C[N+](C)(C)CCOC(N)=O", "note": "[Carbachol]", "values": [{"measurement": "average of the standard deviation every 5 msec after applying Carbachol", "setting": "[1]; [3]", "result": "increased"}, {"measurement": "average of the standard deviation of the electrical signal at 100 msec intervals", "setting": "[1]; [4]", "result": "the higher the Carbachol concentration, the higher the average of the standard deviation"}, {"measurement": "average and half-width of the normal distribution of standard deviations compared with the normal cell", "setting": "[2]; 50 μM Carbachol, FIG. 9", "result": "larger average and half-width values than those of the normal cell"}, {"measurement": "average of the standard deviation every 5 msec after applying Carbachol", "setting": "[2]; [3]", "result": "increased"}, {"measurement": "average of the standard deviation of the electrical signal at 100 msec intervals", "setting": "[2]; [4]", "result": "the higher the Carbachol concentration, the higher the average of the standard deviation"}]}]}
